# In ChEMBL document CHEMBL4007415, “Thieno[3,2-b]pyrrole-5-carboxamides as New Reversible Inhibitors of Histone Lysine Demethylase KDM1A/LSD1. Part 1: High-Throughput Screening and Preliminary Exploration” (J Med Chem, 2017):
# The source made the active and inactive calls. The rule behind the calls is not given here.
# Legend:
# [1] = biological target: T1, LSD1/CoREST complex (Homo sapiens, UniProt O60341)
# Description: Inhibition of recombinant human KDM1A/CoREST complex expressed in Escherichia coli using biotinylated H3K4me1 peptide as substrate preincubated for 20 mins measured after 1 hr by TR-FRET assay
# [2] = biological target: T2, Lysine-specific histone demethylase 2 (Homo sapiens, UniProt Q8NB78)
# T2 sequence (Q8NB78 whole entry): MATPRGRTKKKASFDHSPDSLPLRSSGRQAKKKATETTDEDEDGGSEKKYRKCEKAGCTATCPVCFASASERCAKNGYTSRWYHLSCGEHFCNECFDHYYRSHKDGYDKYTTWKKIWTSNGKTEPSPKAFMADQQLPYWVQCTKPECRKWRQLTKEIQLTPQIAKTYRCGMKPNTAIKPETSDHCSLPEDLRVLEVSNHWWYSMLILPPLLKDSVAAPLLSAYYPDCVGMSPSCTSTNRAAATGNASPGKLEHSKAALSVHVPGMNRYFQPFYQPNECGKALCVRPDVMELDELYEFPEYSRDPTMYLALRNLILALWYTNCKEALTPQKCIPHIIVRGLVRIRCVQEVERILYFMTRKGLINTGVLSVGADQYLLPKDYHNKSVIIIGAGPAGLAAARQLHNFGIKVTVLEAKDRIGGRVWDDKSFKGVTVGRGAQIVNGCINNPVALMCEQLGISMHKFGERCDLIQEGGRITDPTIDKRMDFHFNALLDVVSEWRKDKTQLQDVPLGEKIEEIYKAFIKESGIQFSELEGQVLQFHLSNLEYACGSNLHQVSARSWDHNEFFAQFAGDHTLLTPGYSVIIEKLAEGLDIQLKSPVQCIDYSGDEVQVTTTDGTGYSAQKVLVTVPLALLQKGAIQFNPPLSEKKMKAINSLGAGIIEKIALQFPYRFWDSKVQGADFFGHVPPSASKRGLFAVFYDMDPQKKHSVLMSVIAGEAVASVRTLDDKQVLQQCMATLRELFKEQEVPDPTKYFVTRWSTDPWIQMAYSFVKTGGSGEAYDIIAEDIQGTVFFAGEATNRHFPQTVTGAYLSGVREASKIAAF
# Description: Inhibition of KDM1B (unknown origin)
# [3] = biological target: T3, Amine oxidase [flavin-containing] B (Homo sapiens, UniProt P27338)
# T3 sequence (P27338 whole entry): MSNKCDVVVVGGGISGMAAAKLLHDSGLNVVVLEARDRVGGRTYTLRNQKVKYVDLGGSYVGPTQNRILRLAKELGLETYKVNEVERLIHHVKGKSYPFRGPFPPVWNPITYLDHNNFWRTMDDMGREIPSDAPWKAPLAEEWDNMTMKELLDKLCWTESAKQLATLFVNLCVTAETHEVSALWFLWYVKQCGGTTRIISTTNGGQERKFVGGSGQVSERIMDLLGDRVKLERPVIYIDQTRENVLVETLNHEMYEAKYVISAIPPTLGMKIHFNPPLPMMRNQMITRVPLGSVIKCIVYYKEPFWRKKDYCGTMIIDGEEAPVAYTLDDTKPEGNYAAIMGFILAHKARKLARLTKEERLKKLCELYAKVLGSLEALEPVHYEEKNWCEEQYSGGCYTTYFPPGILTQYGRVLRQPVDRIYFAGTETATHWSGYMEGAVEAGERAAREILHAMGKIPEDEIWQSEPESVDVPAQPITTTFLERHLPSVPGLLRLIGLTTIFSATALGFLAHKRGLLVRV
# Description: Inhibition of recombinant human MAOB incubated for 15 mins measured after 30 mins by luminescence-Glo assay
# [4] = biological target: T4, Amine oxidase [flavin-containing] A (Homo sapiens, UniProt P21397)
# T4 sequence (P21397 whole entry): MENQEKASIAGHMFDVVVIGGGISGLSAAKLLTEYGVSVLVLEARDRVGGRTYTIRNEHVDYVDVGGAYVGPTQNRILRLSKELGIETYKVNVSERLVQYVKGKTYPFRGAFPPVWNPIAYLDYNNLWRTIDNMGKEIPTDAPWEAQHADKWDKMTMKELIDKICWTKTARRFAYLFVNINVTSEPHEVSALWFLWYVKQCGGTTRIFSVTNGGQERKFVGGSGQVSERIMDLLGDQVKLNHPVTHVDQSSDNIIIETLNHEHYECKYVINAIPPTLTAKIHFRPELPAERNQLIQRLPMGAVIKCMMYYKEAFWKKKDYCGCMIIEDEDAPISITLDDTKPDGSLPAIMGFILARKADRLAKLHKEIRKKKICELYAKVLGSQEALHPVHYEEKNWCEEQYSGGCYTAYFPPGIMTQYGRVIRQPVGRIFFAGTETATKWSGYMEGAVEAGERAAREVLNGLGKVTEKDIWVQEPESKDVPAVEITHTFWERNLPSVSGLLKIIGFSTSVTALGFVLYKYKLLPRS
# Description: Inhibition of recombinant human MAOA incubated for 15 mins measured after 30 mins by luminescence-Glo assay
# [5] = test system: CC(=O)c1ccc(CN2CCC3(CCNCC3)C2)cc1; conditions: Homo sapiens
# Description: Inhibition of recombinant human KDM1A/CoREST complex expressed in Escherichia coli assessed as Km for substrate using H3K4me1 peptide as substrate preincubated for 15 mins followed by substrate addition measured for 12 mins by Lineweaver-Burk plot analysis
# [6] = biological target: Lysine-specific histone demethylase 1A (Homo sapiens) (UniProt O60341); assay: Inhibition of KDM1A in human THP1 cells assessed as increase in CD86 mRNA expression level at 5 uM after 24 hrs by qRT-PCR analysis relative to control; type: cell-based
# [7] = test system: THP-1; assay: Induction of cell death in human THP1 cells at 1 uM after 72 hrs by propidium iodide staining based flow cytometry; type: functional
# [8] = test system: THP-1; assay: Induction of apoptosis in human THP1 cells at 1 uM after 72 hrs by Annexin V-propidium iodide staining based flow cytometry; type: functional, cell-based
# [9] = biological target: Lysine-specific histone demethylase 1A (Homo sapiens) (UniProt O60341); assay: Inhibition of KDM1A in human THP1 cells assessed as increase in CD14 mRNA expression level at 1 uM after 24 hrs by qRT-PCR analysis relative to control; type: cell-based
# [10] = test system: THP-1; assay: Anticlonogenic activity against human THP1 cells assessed as inhibition of colony formation at 5 uM after 13 days relative to control; type: functional; conditions: THP-1, 312 h
# [11] = biological target: Lysine-specific histone demethylase 1A (Homo sapiens) (UniProt O60341); assay: Inhibition of KDM1A in human THP1 cells assessed as increase in CD11b mRNA expression level at 1 uM after 24 hrs by qRT-PCR analysis relative to control; type: cell-based
# [12] = test system: THP-1; assay: Induction of apoptosis in human THP1 cells at 0.5 uM after 72 hrs by Annexin V-propidium iodide staining based flow cytometry; type: functional, cell-based
# [13] = test system: THP-1; assay: Induction of cell death in human THP1 cells at 0.5 uM after 72 hrs by propidium iodide staining based flow cytometry; type: functional
# [14] = test system: THP-1; assay: Anticlonogenic activity against human THP1 cells assessed as inhibition of colony formation at 0.5 uM after 13 days relative to control; type: functional; conditions: THP-1, 312 h
# [15] = biological target: T1, LSD1/CoREST complex; assay: Inhibition of recombinant human KDM1A/CoREST complex expressed in Escherichia coli using biotinylated H3K4me1 peptide as substrate preincubated for 10 mins with enzyme followed by substrate addition measured after 1 hr by TR-FRET HTS assay
# [16] = biological target: T1, LSD1/CoREST complex; remark: listed apart in the source
# Description: Inhibition of recombinant human KDM1A/CoREST complex expressed in Escherichia coli using H3K4me1 peptide as substrate preincubated for 15 mins with enzyme followed by substrate addition measured after 12 mins by Amplex Ultra Red reagent based HRP enzyme coupled assay
# [17] = biological target: T1, LSD1/CoREST complex; assay: Competitive inhibition of recombinant human KDM1A/CoREST complex expressed in Escherichia coli using H3K4me1 peptide as substrate preincubated for 15 mins followed by substrate addition measured for 12 mins by Lineweaver-Burk plot analysis
Compound,IC50 [1] [µM],also measured
CN(C)Cc1cc2c(cc(C(=O)Nc3ccccc3)n2C)s1,> 100,
COCc1c(C(=O)Nc2ccccc2)n(C)c2ccsc12,> 100,
CN(C)Cc1cccc(NC(=O)c2cc3sccc3n2C)c1,16.7,
Cn1c(C(=O)Nc2cccc(COc3ccncc3)c2)cc2sccc21,9.4,
Cn1c(C(=O)Nc2ccccc2)cc2sccc21,25.7,
COCc1cccc(NC(=O)c2cc3sccc3n2C)c1,,IC50 [2]: > 100 µM; IC50 [3]: 56.8 µM; IC50 [4]: > 100 µM
Cn1c(C(=O)Nc2ccccc2)cc2sc(Br)cc21,> 100,
Cn1c(C(=O)Nc2ccncc2)cc2sccc21,> 100,
CCn1c(C(=O)Nc2ccccc2)cc2sccc21,9.3,
LSD1/CoREST complex (Homo sapiens) (from UniProt O60341+Q9UKL0),,Km [5]: 1.4 µM
Cn1c(C(=O)Nc2cccc(Cl)c2)cc2sccc21,18.7,
Cn1cnc2[nH]c(C(=O)Nc3ccccc3)cc21,> 100,
Cn1c(C(=O)Nc2cccc(Oc3ccncc3)c2)cc2sccc21,89.9,
Cc1sc2cc(C(=O)Nc3ccccc3)n(C)c2c1C,> 100,
Cn1c(C(=O)Nc2cccc(COc3ccc(OC4CCNCC4)cc3)c2)cc2sccc21,0.16 to 0.162,fold change (FC) [6]: 14.3; Activity [7]: inactive; Activity [8]: inactive; IC50 [2]: > 100 µM; fold change (FC) [9]: 4.79; inhibition at 5 µM [10]: 29.5%; fold change (FC) [11]: 4.61; IC50 [3]: 7.16 µM; IC50 [4]: > 100 µM
COc1cccc(NC(=O)c2cc3sccc3n2C)c1,26.5,
Cn1c(C(=O)Nc2ccccc2)cc2occc21,89.5,
Cn1c(C(=O)Nc2cccc(COc3ccc(O)cc3)c2)cc2sccc21,25.2,
Cn1c(C(=O)Nc2cccc(Br)c2)cc2sccc21,> 100,
CN1CCN(c2cccc(NC(=O)c3cc4sccc4n3C)c2)CC1,21.5,
Cn1c(C(=O)Nc2ccccc2)c(Cl)c2sccc21,> 100,

Compound,IC50 [1] [µM],also measured
CCCn1c(C(=O)Nc2ccccc2)cc2sccc21,53.2,
Cn1c(C(=O)Nc2ccccc2)cc2scnc21,> 100,
Cn1c(C(=O)Nc2cccc(C(N)=O)c2)cc2sccc21,97.3,
NC1CCC(N[C@@H]2C[C@H]2c2ccccc2)CC1 (stereo partly drawn),,Activity [12]: inactive; IC50 [2]: 43.4 µM; Activity [13]: inactive; inhibition at 0.5 µM [14]: 70%; IC50 [4]: 48.3 µM
O=C(Nc1ccccc1)c1cc2sccc2n1S(=O)(=O)c1ccccc1,> 100,
Cn1cnc2c1cc(C(=O)Nc1ccccc1)n2C,> 100,
Cn1c(C(=O)Nc2cccc(COc3ccccc3)c2)cc2sccc21,> 100,
Cc1oc(-c2ccc(Cl)cc2[N+](=O)[O-])cc1C(=O)Nc1ccccc1,,IC50 [15]: 3.5 µM
Cn1c(C(=O)Nc2ccccc2)cc2sc(F)cc21,> 100,
Cn1c(C(=O)Nc2ccccc2)cc2sc(I)cc21,> 100,
Cn1ccc2c1cc(C(=O)Nc1ccccc1)n2C,> 100,
Cn1c(C(=O)Nc2ccccc2)c(I)c2sc(I)cc21,> 100,
O=C(Nc1ccccc1)c1cc2sccc2s1,> 100,
Cn1c(C(=O)Nc2cccc(OCc3ccncc3)c2)cc2sccc21,7.2,
O=C(Nc1ccccc1)c1cc2sccc2[nH]1,> 100,
Cn1c(C(=O)Nc2ccncn2)cc2sccc21,> 100,
CC(=O)c1ccc(CN2CCC3(CCNCC3)C2)cc1,8.1,IC50 [15]: 5 µM; IC50 [16]: 82.4 µM; Ki [17]: 48.4 µM; IC50 [3]: 42.5 µM; IC50 [4]: > 100 µM
O=C(Nc1ccccc1)c1ccc2sccc2c1,> 100,
Cn1c(C(=O)Nc2cccc(F)c2)cc2sccc21,22.2,
Cc1csc2cc(C(=O)Nc3ccccc3)n(C)c12,> 100,
NCCn1c(C(=O)Nc2ccccc2)cc2sccc21,48.1,

Compound,IC50 [1] [µM],also measured
Cn1c(C(=O)Nc2ccccn2)cc2sccc21,> 100,
CN(C)Cc1c(C(=O)Nc2ccccc2)n(C)c2ccsc12,> 100,
CSCc1cccc(NC(=O)c2cc3sccc3n2C)c1,7.4,
Cc1cc2c(cc(C(=O)Nc3ccccc3)n2C)s1,> 100,
Cc1nc(-n2nc(-c3cccs3)cc2NC(=O)COc2ccccc2F)[nH]c(=O)c1C,,IC50 [15]: 0.76 µM
Cn1c(C(=O)Nc2ccccc2)c(I)c2sccc21,> 100,
O=C(Nc1ccccc1)c1cc2sccc2n1-c1ccccc1,> 100,
CN1CCC(Oc2ccc(OCc3cccc(NC(=O)c4cc5sccc5n4C)c3)cc2)CC1,0.44 to 0.442,Activity [7]: inactive; Activity [8]: inactive; IC50 [2]: > 100 µM; fold change (FC) [9]: 2.76; fold change (FC) [11]: 4.76; IC50 [3]: 7.6 µM; IC50 [4]: > 100 µM
Cn1c(C(=O)Nc2ncccn2)cc2sccc21,> 100,
Cn1c(C(=O)Nc2ccccc2)cc2ncsc21,> 100,
Cn1c(C(=O)Nc2cccnc2)cc2sccc21,61.5,
CN1CCC(COc2cccc(NC(=O)c3cc4sccc4n3C)c2)CC1,2.2,
Cn1c(C(=O)Nc2ccccc2)nc2sccc21,> 100,
Cn1c(C(=O)Nc2cccc(CN3CCOCC3)c2)cc2sccc21,11.1,
Cn1c(C(=O)Nc2cccc(CO)c2)cc2sccc21,52.3,
CN(C)c1cccc(NC(=O)c2cc3sccc3n2C)c1,29.6,
Cc1c(C(=O)Nc2ccccc2)n(C)c2ccsc12,> 100,
Cn1ncc2cc(C(=O)Nc3ccccc3)n(C)c21,> 100,
Cn1c(C(=O)Nc2ccccc2)cc2ccsc21,38.8,
